Literature values, collected in patent publication US20100150868A1, “Methods of Individually Optimizing Treatment for an Inflammation Associated Disease” (Tel HaShomer Medical Research Infrastructure and Services …, priority 2005, published 2010).

Tested on: TNF-α secretion of MOG stimulated PBMC
Conditions: in vitro, 10 μg/ml

Glatiramer acetate [Copaxone]
inhibitory effect on TNF-α producing cells compared with in-vivo experiments: same inhibitory effect
